# ChEMBL document CHEMBL1131161 (J Med Chem, 1998)
# Tests used:
# CV-1 [1] = assay: Inhibitory concentration in CV-1 cell; format: functional, cell-based, Cercopithecidae; conditions: Chlorocebus aethiops
# Progesterone receptor [2] = target: T1, Progesterone receptor (Homo sapiens, UniProt P06401); assay: Effective concentration (EC50) against human progesterone receptor expressed in CV-1 cell; format: functional, cell-based
# T1 sequence (P06401 whole entry): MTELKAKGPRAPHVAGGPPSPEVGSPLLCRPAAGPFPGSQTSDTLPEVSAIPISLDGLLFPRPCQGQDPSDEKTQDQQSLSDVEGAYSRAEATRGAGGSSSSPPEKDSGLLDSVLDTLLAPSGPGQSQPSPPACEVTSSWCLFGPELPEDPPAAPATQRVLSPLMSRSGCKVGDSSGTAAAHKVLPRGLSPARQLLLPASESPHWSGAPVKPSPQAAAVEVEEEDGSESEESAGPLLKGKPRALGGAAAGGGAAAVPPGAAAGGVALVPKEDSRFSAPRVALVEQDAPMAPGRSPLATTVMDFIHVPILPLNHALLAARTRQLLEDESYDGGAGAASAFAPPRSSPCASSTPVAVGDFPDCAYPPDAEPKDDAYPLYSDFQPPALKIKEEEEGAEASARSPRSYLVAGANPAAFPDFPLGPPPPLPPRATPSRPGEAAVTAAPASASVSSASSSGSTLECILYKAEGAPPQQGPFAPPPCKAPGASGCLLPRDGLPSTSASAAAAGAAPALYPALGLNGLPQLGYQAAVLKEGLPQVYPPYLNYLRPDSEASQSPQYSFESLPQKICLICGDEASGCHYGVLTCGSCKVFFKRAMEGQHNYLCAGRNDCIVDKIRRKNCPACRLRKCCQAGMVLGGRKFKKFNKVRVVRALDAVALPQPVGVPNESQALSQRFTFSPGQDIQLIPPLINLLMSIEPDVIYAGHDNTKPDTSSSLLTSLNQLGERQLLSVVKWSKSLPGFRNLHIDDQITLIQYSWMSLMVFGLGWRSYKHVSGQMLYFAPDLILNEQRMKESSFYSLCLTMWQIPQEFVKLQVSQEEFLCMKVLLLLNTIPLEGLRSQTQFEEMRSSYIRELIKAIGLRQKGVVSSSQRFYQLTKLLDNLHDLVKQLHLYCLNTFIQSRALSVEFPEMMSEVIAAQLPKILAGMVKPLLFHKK
# [3] = target: T2, Mineralocorticoid receptor (Homo sapiens, UniProt P08235); assay: Inhibitory activity (IC50) against human mineralocorticoid receptor expressed in CV-1 cells; format: functional, cell-based
# T2 sequence (P08235 whole entry): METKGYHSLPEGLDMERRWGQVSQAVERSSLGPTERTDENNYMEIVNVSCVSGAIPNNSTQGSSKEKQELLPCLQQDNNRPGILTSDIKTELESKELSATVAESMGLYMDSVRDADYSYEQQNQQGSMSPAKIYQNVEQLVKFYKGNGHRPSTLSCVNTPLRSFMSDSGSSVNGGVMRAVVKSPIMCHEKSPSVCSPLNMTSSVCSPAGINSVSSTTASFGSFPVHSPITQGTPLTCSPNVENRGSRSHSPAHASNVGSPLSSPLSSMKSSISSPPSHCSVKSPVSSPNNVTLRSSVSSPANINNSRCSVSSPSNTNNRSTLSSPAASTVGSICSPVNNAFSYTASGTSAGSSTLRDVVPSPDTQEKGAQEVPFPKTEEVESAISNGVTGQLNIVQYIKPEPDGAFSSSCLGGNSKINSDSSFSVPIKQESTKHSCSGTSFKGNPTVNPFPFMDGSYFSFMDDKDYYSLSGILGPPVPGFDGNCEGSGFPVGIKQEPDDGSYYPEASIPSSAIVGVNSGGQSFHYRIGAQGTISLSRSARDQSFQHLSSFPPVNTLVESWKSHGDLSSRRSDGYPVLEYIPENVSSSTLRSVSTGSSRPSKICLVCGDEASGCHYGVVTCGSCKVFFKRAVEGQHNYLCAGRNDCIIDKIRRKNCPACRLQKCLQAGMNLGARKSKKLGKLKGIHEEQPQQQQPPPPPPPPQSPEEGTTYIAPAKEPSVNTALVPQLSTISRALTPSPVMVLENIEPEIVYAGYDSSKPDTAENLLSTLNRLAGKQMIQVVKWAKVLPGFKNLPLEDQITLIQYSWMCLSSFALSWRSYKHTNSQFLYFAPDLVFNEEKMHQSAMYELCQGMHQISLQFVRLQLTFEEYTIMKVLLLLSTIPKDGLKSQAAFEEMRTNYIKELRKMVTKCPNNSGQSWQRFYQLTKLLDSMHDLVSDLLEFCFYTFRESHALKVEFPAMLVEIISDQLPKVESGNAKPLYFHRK
# Progesterone receptor [4] = target: T1, Progesterone receptor; assay: Binding affinity against human progesterone receptor
# Androgen receptor [5] = target: T3, Androgen receptor (Homo sapiens, UniProt P10275)
# T3 sequence (P10275 whole entry): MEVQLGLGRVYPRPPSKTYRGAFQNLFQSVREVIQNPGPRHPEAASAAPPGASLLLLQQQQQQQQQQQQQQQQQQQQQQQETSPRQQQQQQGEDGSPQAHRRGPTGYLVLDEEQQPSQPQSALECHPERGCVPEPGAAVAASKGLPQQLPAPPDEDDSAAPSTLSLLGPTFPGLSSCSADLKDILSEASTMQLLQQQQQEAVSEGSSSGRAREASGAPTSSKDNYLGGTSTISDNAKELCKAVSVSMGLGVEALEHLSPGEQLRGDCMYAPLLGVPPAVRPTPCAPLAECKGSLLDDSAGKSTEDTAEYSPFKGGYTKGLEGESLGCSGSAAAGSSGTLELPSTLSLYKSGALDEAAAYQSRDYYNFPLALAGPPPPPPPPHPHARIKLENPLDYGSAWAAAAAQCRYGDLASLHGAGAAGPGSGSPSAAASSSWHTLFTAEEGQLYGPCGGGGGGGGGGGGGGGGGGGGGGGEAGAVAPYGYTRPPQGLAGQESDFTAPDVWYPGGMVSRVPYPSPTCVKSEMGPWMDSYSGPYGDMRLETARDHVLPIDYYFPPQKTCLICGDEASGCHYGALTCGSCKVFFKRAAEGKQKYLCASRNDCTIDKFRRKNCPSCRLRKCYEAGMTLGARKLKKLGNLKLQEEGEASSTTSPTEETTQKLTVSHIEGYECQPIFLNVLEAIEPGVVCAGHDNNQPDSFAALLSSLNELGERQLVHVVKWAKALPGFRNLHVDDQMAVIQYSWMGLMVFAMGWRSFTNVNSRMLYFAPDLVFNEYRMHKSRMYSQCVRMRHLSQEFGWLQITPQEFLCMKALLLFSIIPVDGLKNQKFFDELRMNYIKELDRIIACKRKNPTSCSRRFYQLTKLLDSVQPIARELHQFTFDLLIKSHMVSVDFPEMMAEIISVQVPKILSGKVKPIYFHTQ
# Description: Binding affinity against human androgen receptor
# Androgen receptor [6] = target: T3, Androgen receptor; remark: listed apart in the source
# Description: Inhibitory activity (IC50) against human androgen receptor expressed in CV-1 cells
# Glucocorticoid receptor [7] = target: T4, Glucocorticoid receptor (Homo sapiens, UniProt P04150)
# T4 sequence (P04150 whole entry): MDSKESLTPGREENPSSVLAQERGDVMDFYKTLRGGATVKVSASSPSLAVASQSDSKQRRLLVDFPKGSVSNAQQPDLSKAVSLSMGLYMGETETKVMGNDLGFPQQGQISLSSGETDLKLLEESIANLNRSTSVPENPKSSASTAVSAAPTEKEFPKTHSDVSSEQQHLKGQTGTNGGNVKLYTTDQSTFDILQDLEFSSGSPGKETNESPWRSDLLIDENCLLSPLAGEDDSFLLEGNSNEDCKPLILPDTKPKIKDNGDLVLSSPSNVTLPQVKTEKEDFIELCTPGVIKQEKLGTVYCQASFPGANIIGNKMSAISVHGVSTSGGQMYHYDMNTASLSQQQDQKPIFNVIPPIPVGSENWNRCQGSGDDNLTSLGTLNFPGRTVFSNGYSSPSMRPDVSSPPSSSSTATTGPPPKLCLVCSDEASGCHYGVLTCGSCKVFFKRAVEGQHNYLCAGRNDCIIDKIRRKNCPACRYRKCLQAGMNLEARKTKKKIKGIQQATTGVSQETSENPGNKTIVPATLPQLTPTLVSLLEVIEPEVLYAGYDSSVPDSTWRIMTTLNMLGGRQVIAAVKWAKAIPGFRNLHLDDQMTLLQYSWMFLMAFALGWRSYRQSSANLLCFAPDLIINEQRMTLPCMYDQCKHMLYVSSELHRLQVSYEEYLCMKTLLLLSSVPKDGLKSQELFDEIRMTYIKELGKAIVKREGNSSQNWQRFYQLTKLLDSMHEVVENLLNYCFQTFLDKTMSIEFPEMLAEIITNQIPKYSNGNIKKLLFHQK
# Description: Inhibitory activity (IC50) against human glucocorticoid receptor expressed in CV-1 cells
# Estrogen receptor = Estrogen receptor (Homo sapiens, UniProt Q92731+P03372); conditions: cv-1
# Description: IC50 determined against human estrogen receptor in CV-1 cells
# Glucocorticoid receptor [8] = target: T4, Glucocorticoid receptor; assay: biochemical
# Description: Binding affinity against human glucocorticoid receptor expressed in SF-12 cells
# CV-1 [9] = assay: Inhibitory concentration was determined from full dose response curves ranging from 10 E -12 to 10 E -5M in CV-1 cell; format: functional, Cercopithecidae
# CV-1 [10] = assay: inhibitory concentration was determined from full dose response curves ranging from 10 E -12 to 10 E -5M in CV-1 cell; format: functional, cell-based, Cercopithecidae; conditions: Chlorocebus aethiops
Structure (SMILES),IC50 (CV-1 [1]) [nM],EC50 (Progesterone receptor [2]) [nM],Ki (Progesterone receptor [4]) [nM],also measured
CC1=CC(C)(C)Nc2ccc3c(c21)C(c1ccccc1)Oc1ccccc1-3 (centres undefined),290,,,
CC1=CC(C)(C)Nc2ccc3c(c21)/C(=C/c1ccc(Cl)cc1)Oc1ccccc1-3,880,139,60,
CC1=CC(C)(C)Nc2ccc3c(c21)/C(=C/c1ccc(Br)cc1)Oc1ccccc1-3,> 10000,31.5,8.7,
CC1=CC(C)(C)Nc2ccc3c(c21)C(Cc1ccccc1)Oc1ccccc1-3 (centres undefined),270,16.8,2.1,
CC1=CC(C)(C)Nc2ccc3c(c21)/C(=C/c1ccc(C)cc1)Oc1ccccc1-3,590,> 10000,70,
CC1=CC(C)(C)Nc2ccc3c(c21)/C(=C/c1ccccc1Br)Oc1ccccc1-3,> 10000,57.8,5.5,
CC1=CC(C)(C)Nc2ccc3c(c21)/C(=C/c1ccccc1Cl)Oc1ccccc1-3,> 10000,57.8,1.3,
CC(=O)O[C@]1(C(C)=O)CC[C@H]2[C@@H]3C[C@H](C)C4=CC(=O)CC[C@]4(C)[C@H]3CC[C@@]21C [MEDROXYPROGESTERONE ACETATE],,,,IC50 (CV-1 [9]): >10000 nM; IC50 (Glucocorticoid receptor [7]): 10 nM
CC(=O)[C@H]1CC[C@H]2[C@@H]3CCC4=CC(=O)CC[C@]4(C)[C@H]3CC[C@]12C [PROGESTERONE],,,,IC50 (CV-1 [10]): > 10000 nM

# Further lines, with some results ahead:
IC50 (CV-1 [1]) [nM],EC50 (Progesterone receptor [2]) [nM],Ki (Progesterone receptor [4]) [nM],Structure (SMILES),also measured
> 10000,24.4,4.9,CC1=CC(C)(C)Nc2ccc3c(c21)/C(=C/c1ccccc1)Oc1ccccc1-3,IC50 [3]: 3000 nM; Ki (Androgen receptor [5]): 2660 nM; IC50 (Androgen receptor [6]): 650 nM; IC50 (Glucocorticoid receptor [7]): 737 nM; IC50 (Estrogen receptor): > 10000 nM; Ki (Glucocorticoid receptor [8]): 299 nM
531,26.3,24.3,CC1=CC(C)(C)Nc2ccc3c(c21)/C(=C/c1cccc(F)c1F)Oc1ccccc1-3,
> 10000,59.5,3.5,CC1=CC(C)(C)Nc2ccc3c(c21)/C(=C/c1ccc(F)cc1)Oc1ccccc1-3,
> 10000,37,22.1,CC1=CC(C)(C)Nc2ccc3c(c21)/C(=C/c1cccc(Br)c1)Oc1ccccc1-3,
425,> 10000,53.3,COc1cccc(/C=C2\Oc3ccccc3-c3ccc4c(c32)C(C)=CC(C)(C)N4)c1,
> 10000,7.6,0.83,CC1=CC(C)(C)Nc2ccc3c(c21)/C(=C/c1cccc(F)c1)Oc1ccccc1-3,IC50 [3]: > 10000 nM; Ki (Androgen receptor [5]): 798 nM; IC50 (Androgen receptor [6]): 795 nM; IC50 (Glucocorticoid receptor [7]): 458 nM; IC50 (Estrogen receptor): > 10000 nM; Ki (Glucocorticoid receptor [8]): 180 nM
> 10000,117,18.7,CC1=CC(C)(C)Nc2ccc3c(c21)/C(=C/c1cccc(Cl)c1)Oc1ccccc1-3,
> 10000,47.7,12.6,CC1=CC(C)(C)Nc2ccc3c(c21)/C(=C/c1cc(F)cc(F)c1)Oc1ccccc1-3,
> 10000,75,39.7,CC1=CC(C)(C)Nc2ccc3c(c21)/C(=C/c1cccc(C)c1)Oc1ccccc1-3,
220,32,31.3,CC1=CC(C)(C)Nc2ccc3c(c21)/C(=C/c1c(F)cccc1F)Oc1ccccc1-3,
550,22,,CC1=CC(C)(C)Nc2ccc3c(c21)/C(=C/c1ccc(F)cc1F)Oc1ccccc1-3,
> 10000,29,5.6,CC1=CC(C)(C)Nc2ccc3c(c21)/C(=C/c1ccccc1F)Oc1ccccc1-3,
